Test results reported in patent US20100168197A1, “MUSCARINIC RECEPTOR ANTAGONISTS” (priority 2007, published 2010).

Tested on: Guinea Pig trachea
Assay: In-vitro functional assay, carbachol-contracted isolated trachea
Conditions: Cavia porcellus; isolated tissue, 1 μM carbachol contraction; range stated for the group of tested compounds
Description: The contractile results are expressed as % of control E max. ED50 values are calculated by fitting a non-linear regression curve (Graph Pad Prism). pKb values are calculated by the formula pKb=−log [(molar concentration of antagonist/(dose ratio−1))]
where, dose ratio=ED50 in the presence of antagonist/ED50 in the absence of antagonist.
The Guinea Pig (400-600 gm) was procured and trachea was removed under anesthesia (sodium pentobarbital, 300 mg/kg i.p) and was immediately kept it in ice-cold Krebs Henseleit buffer. Indomethacin (10 μM) was present throughout the KH buffer to prevent the formation of bronchoactive prostanoids.
The tissue of adherent fascia was cleaned and was cut into strips of equal size (with approximately 4-5 tracheal rings in each strip). The epithelium was removed by careful rubbing, minimizing damage to the smooth muscle. […] Opposite ends of the cut rings were tied with the help of a thread. The tissue was mounted in isolated tissue baths containing 10 ml Krebs Henseleit buffer maintained at 37° C. and bubbled with carbogen, at a basal tension of 1 gm. The buffer was changed 4-5 times for about an hour. The tissue was equilibrated for 1 hour for stabilization. After 1 hour, the tissue was challenged with 1 μM carbachol. This was repeated after every 2-3 washes till two similar consecutive responses were obtained. At the end of stabilization, the tissue was washed for 30 minutes followed by incubation with suboptimal dose of MRA/Vehicle for 20 minutes prior to contraction of the tissues with 1 μM carbachol. The contractile response of tissues was recorded either on Powerlab data acquisition system or on Grass polygraph (Model 7). The relaxation was expressed as percentage of maximum carbachol response. The data was expressed as mean±s.e. mean for n observations. The EC50 was calculated as the concentration producing 50% of the maximum relaxation to 1 μM carbachol. The percent relaxation was compared between the treated and control tissues using non-parametric unpaired t-test. A p value of <0.05 was considered to be statistically significant.

Structure (SMILES) | Kb
Cc1n(CCCOC(=O)[C@](O)(c2ccccc2)[C@@H]2CCCC(F)(F)C2)cc[n+]1C [Compound No. 5, 1-[3-({(2R)-2-[(1R)-3,3-Difluorocyclohexyl]-2-hydroxy-2-phenylacetyl}oxy)propyl]-2,3-dimethyl-1H-imidazol-3-ium iodide] | 0.1 to 3.16 nM
Cc1n(CCCOC(=O)[C@](O)(c2ccccc2)[C@@H]2CCC(F)(F)C2)cc[n+]1CCc1ccccc1 [Compound No. 29, 1-[3-({(2R)-2-[(1R)-3,3-Difluorocyclopentyl]-2-hydroxy-2-phenylacetyl}oxy)propyl]-2-methyl-3-(2-phenylethyl)-1H-imidazol-3-ium bromide] | 0.1 to 3.16 nM
CCCC[n+]1ccn(CCCOC(=O)[C@](O)(c2ccccc2)[C@@H]2CCC(F)(F)C2)c1C [Compound No. 51, 3-Butyl-1-[3-({(2R)-2-[(1R)-3,3-difluorocyclopentyl]-2-hydroxy-2-phenylacetyl}oxy)propyl]-2-methyl-1H-imidazol-3-ium bromide] | 0.1 to 3.16 nM
Cc1n(CCOC(=O)[C@](O)(c2ccccc2)[C@@H]2CCC(F)(F)C2)cc[n+]1CC1CC1 [Compound No. 85, 3-(Cyclopropylmethyl)-1-[2-({(2R)-2-[(1R)-3,3-difluorocyclopentyl]-2-hydroxy-2-phenylacetyl}oxy)ethyl]-2-methyl-1H-imidazol-3-ium bromide] | 0.1 to 3.16 nM
Cc1n(CCCOC(=O)[C@](O)(c2ccccc2)[C@@H]2CCC(F)(F)C2)cc[n+]1CC1CC1 [Compound No. 22, 3-(Cyclopropylmethyl)-1-[3-({(2R)-2-[(1R)-3,3-difluorocyclopentyl]-2-hydroxy-2-phenylacetyl}oxy)propyl]-2-methyl-1H-imidazol-3-ium bromide] | 0.1 to 3.16 nM
Cc1n(CCCOC(=O)[C@](O)(c2ccccc2)[C@@H]2CCC(F)(F)C2)cc[n+]1C [Compound No. 30, 1-[3-({(2R)-2-[(1R)-3,3-Difluorocyclopentyl]-2-hydroxy-2-phenylacetyl}oxy)propyl]-2,3-dimethyl-1H-imidazol-3-ium bromide] | 0.1 to 3.16 nM
Cc1n(CCOC(=O)[C@](O)(c2ccccc2)[C@@H]2CCC(F)(F)C2)cc[n+]1C [Compound No. 19, 1-[2-({(2R)-2-[(1R)-3,3-Difluorocyclopentyl]-2-hydroxy-2-phenylacetyl}oxy)ethyl]-2,3-dimethyl-1H-imidazol-3-ium bromide] | 0.1 to 3.16 nM
CC[n+]1ccn(CCCOC(=O)[C@](O)(c2ccccc2)[C@@H]2CCC(F)(F)C2)c1C [Compound No. 21, 1-[3-({(2R)-2-[(1R)-3,3-Difluorocyclopentyl]-2-hydroxy-2-phenylacetyl}oxy)propyl]-3-ethyl-2-methyl-1H-imidazol-3-ium iodide] | 0.1 to 3.16 nM
CCCC[n+]1ccn(CCCOC(=O)C(O)(c2cccs2)c2cccs2)c1C [Compound No. 95, 3-Butyl-1-{3-[2-hydroxy(di-2-thienyl)acetoxy]propyl}-2-methyl-1H-imidazol-3-ium bromide] | 0.1 to 3.16 nM
Cc1n(CCCOC(=O)[C@](O)(c2ccccc2)[C@@H]2CCCC(F)(F)C2)cc[n+]1Cc1ccc(F)cc1 [Compound No. 31, 1-[3-({(2R)-2-[(1R)-3,3-Difluorocyclohexyl]-2-hydroxy-2-phenylacetyl}oxy)propyl]-3-(4-fluorobenzyl)-2-methyl-1H-imidazol-3-ium bromide] | 0.1 to 3.16 nM
Cc1n(CCCOC(=O)C(O)(c2ccccc2)C2CCCCCC2)cc[n+]1C (centres unmarked) [Compound No. 6, 1-(3-{[Cycloheptyl(hydroxy)phenylacetyl]oxy}propyl)-2,3-dimethyl-1H-imidazol-3-ium iodide] | 0.1 to 3.16 nM
Cc1n(CCCOC(=O)[C@](O)(c2ccccc2)[C@@H]2CCCC(F)(F)C2)cc[n+]1Cc1ccccc1 [Compound No. 37, 3-Benzyl-1-[3-({(2R)-2-[(1R)-3,3-difluorocyclohexyl]-2-hydroxy-2-phenylacetyl}oxy)propyl]-2-methyl-1H-imidazol-3-ium chloride] | 0.1 to 3.16 nM
Cc1n(CCCOC(=O)[C@](O)(c2ccccc2)[C@@H]2CCC(F)(F)C2)cc[n+]1CC1CCCCC1 [Compound No. 23, 3-(Cyclohexylmethyl)-1-[3-({(2R)-2-[(1R)-3,3-difluorocyclopentyl]-2-hydroxy-2-phenylacetyl}oxy)propyl]-2-methyl-1H-imidazol-3-ium bromide] | 0.1 to 3.16 nM
Cc1n(CCCOC(=O)[C@](O)(c2ccccc2)[C@@H]2CCCC(F)(F)C2)cc[n+]1Cc1ccc(Br)cc1 [Compound No. 9, 3-(4-Bromobenzyl)-1-[3-({(2R)-2-[(1R)-3,3-difluorocyclohexyl]-2-hydroxy-2-phenylacetyl}oxy)propyl]-2-methyl-1H-imidazol-3-ium bromide] | 0.1 to 3.16 nM
Cc1n(CCOC(=O)[C@](O)(c2ccccc2)[C@@H]2CCC(F)(F)C2)cc[n+]1Cc1ccccc1 [Compound No. 17, 3-Benzyl-1-[2-({(2R)-2-[(1R)-3,3-difluorocyclopentyl]-2-hydroxy-2-phenylacetyl}oxy)ethyl]-2-methyl-1H-imidazol-3-ium chloride] | 0.1 to 3.16 nM
Cc1n(CCCOC(=O)[C@](O)(c2ccccc2)[C@@H]2CCC(F)(F)C2)cc[n+]1Cc1ccc(F)cc1 [Compound No. 13, 1-[3-({(2R)-2-[(1R)-3,3-Difluorocyclopentyl]-2-hydroxy-2-phenylacetyl}oxy)propyl]-3-(4-fluorobenzyl)-2-methyl-1H-imidazol-3-ium bromide] | 0.1 to 3.16 nM
Cc1n(CCCOC(=O)[C@](O)(c2ccccc2)[C@@H]2CCC(F)(F)C2)cc[n+]1Cc1ccccc1 [Compound No. 28, 3-Benzyl-1-[3-({(2R)-2-[(1R)-3,3-difluorocyclopentyl]-2-hydroxy-2-phenylacetyl}oxy)propyl]-2-methyl-1H-imidazol-3-ium chloride] | 0.1 to 3.16 nM
